Here are results for 2 compounds from patent US20240300979A1, “SN-38 DERIVATIVE, NANO-PARTICLES CONTAINING SAID DERIVATIVE, MEDICINE, AND METHOD FOR PRODUCING SAID NANO-PARTICLES” (JAPAN SCIENCE AND TECHNOLOGY AGENCY, priority 2021, published 2024).

Structures are written as SMILES. Where only a bound is given, the exact number is not on record here.

A word on the IC50: it is the point on the concentration scale where inhibition reaches its midpoint.

Series [1] relates to human colon cancer cell line HCT-116. Briefly: In vitro activity test, Test Example 4, cancer cell. Format: cell-based. The conditions noted are these: HCT-116 (Cancer cell), 48 hours, read-out: cell viability IC50. The procedure:
(§1) Human liver cancer cell line HePG2 or human breast cancer cell line KPL-4 was seeded in a 96-well plate at 2×10^4 cells/well. On the next day, irinotecan and each SN-38 derivative (compound A ((SN-38×C6 dimer (S—S, ester)), compound B (SN-38×C6 dimer (S—S, carbonate))) nanoparticle dispersion were added to the HepG2 cell culture medium to 0.04 to 10 μM. Then, the cells were cultured for 48 hours, and the cell viability was measured by a colorimetric method using the Cell Counting Kit-8 (produced by Dojindo Laboratories) and a microplate reader.
(§2) As in Test Example 1, human colon cancer cell line HCT-116 or human mammary epithelial cell line HMEC was seeded in a 96-well plate at 2×10^4 cells/well. On the next day, SN-38 and the SN-38 derivative (SNC4DC) nanoparticle dispersion were added to the cell culture medium to 0.04 to 10 μM. Then, the cells were cultured for 48 hours, and the cell viability was measured by a colorimetric method using the Cell Counting Kit-8 (produced by Dojindo Laboratories) and a microplate reader.

The test system of series [2] is human mammary epithelial cell line HMEC. Briefly: In vitro activity test, Test Example 4, normal cell. Type of series: cell-based. On the procedure: as §1, §2
For series [3], the system named is Human liver cancer cell line HePG2 or human breast cancer cell line KPL-4. Briefly: In vitro activity test, Test Example 1 (cell viability, Cell Counting Kit-8). Format: cell-based. Particulars: nanoparticle dispersion, 0.04 to 10 μM, 48 hours. On the procedure: as §1
A short description of series [4]: Dispersion stability of the nano-prodrug. Format: physicochemical. The source says: (§3) Then, nanoparticles were produced. […] The present invention is based on these new findings. Therefore, the present invention provides the following items: […]
Series [5] can be described thus: Nanoparticle aqueous dispersion, particle size and aggregation by SEM and DLS. Type of series: physicochemical. The conditions noted are these: 0.1 mM aqueous dispersion of nanoparticles. The procedure: 100 μL of THF solution of compound A or B prepared to 10 mM was injected into 10 mL of water using a syringe at room temperature, followed by stirring for 2 seconds at 1500 rpm, thereby obtaining an aqueous dispersion of nanoparticles. The concentration of the final aqueous dispersion was 0.1 mM.
100 μL of DMSO or THF solution of each compound prepared to 10 mM was injected into 10 mL of water using a syringe at room temperature, followed by stirring for 2 seconds at 1500 rpm, thereby obtaining an aqueous dispersion of nanoparticles. The concentration of the final aqueous dispersion was 0.1 mM.

Series [6] can be described thus: Drug release triggered by the S-S bond on addition of dithiothreitol and glutathione. Type of series: physicochemical. The conditions noted are these: dithiothreitol and glutathione (reduced form) added to the nano-prodrug.
From the text: as §3

Regarding `CCc1c2c(nc3ccc(O)cc13)-c1cc3c(c(=O)n1C2)COC(=O)[C@]3(O)CC` [SN-38], the IC50 in series [1] was 40 nM; in series [2] (Homo sapiens, HMEC (Normal cell), 48 hours, read-out: cell viability IC50), 550 nM. The “toxicity to normal cells” value in series [2] (HMEC, in words from Table 4) is listed as “highly toxic to normal cells”.

Take `CCCCCC(=O)Oc1ccc2nc3c(c(CC)c2c1)Cn1c-3cc2c(c1=O)COC(=O)[C@@]2(CC)OC(=O)CCCSSCCCC(=O)O[C@]1(CC)C(=O)OCc2c1cc1n(c2=O)Cc2c-1nc1ccc(OC(=O)CCCCC)cc1c2CC` [compound A]: the “pharmacological activity (cell viability, FIG. 1)” value in series [3] is “did not exhibited good pharmacological activity”. In series [4], the dispersion stability is no less than 7 days. The particle size entry in series [5] was “about 100 nm”. Moreover, in series [6], the “cleavage of the S-S bond” value was “the cleavage of the S—S bond proceeded somewhat” and the “formation of C6 acyloxy-substituted SN-38 derivative (drug release)” value was “not confirmed”.
